Activity calls are given as the source filed them. The calls are words filed in the database; no cut-off is given here.
Columns and labels:
[1] = target: Voltage-dependent N-type calcium channel subunit alpha-1B (Homo sapiens, UniProt Q00975); test: Inhibition of Cav2.2 channel
[2] = target: T1, Sodium channel protein type 2 subunit alpha (Homo sapiens, UniProt Q99250); test: Inhibition of human Nav1.2 channel expressed in HEK293 cells at -60 mV by patch clamp method; type: cell-based
[3] = test system: Rattus norvegicus; test: Analgesic activity in ip dosed rat skin incision model of post-operative pain after 24 hrs; type: functional
[4] = target: T1, Sodium channel protein type 2 subunit alpha; test: Inhibition of human Nav1.2 channel expressed in HEK293 cells at -120 mV by patch clamp method; type: cell-based
[5] = test system: Rattus norvegicus; test: Analgesic activity in ip dosed rat carrageenan-induced […] pain model; type: functional
[6] = test system: Rattus norvegicus; test: Antinociceptive activity in rat assessed as reduction of von Frey evoked firing of spinal dorsal horn wide dynamic range neurons at 20 mg/kg, iv; type: functional, Dorsal horn of spinal cord; parameters: scale not given: the % may be the effect or the level left
[7] = test system: Rattus norvegicus; test: Analgesic activity in rat acute thermal stimulation nociception model assessed as paw withdrawal latency at 100 mg/kg, ip; type: functional; conditions: route intraperitoneal
[8] = test system: Rattus norvegicus; test: Antinociceptive activity in rat assessed as reduction of spontaneous firing of spinal dorsal horn wide dynamic range neurons at 20 mg/kg, iv; type: functional, Dorsal horn of spinal cord; parameters: scale not given: the % may be the effect or the level left
[9] = test system: DRG neuron; test: Suppression of evoked action potential firing in rat DRG neurons at 0.1 uM; type: functional
[10] = target: D(4) dopamine receptor (Homo sapiens, UniProt P21917); test: Displacement of [3H]spiperone from dopamine D4.4 receptor
[11] = target: 5-hydroxytryptamine receptor 6 (Homo sapiens, UniProt P50406); test: Displacement of [3H]LSD from 5HT6 receptor
Chain of 5-hydroxytryptamine receptor 6 (P50406 whole entry): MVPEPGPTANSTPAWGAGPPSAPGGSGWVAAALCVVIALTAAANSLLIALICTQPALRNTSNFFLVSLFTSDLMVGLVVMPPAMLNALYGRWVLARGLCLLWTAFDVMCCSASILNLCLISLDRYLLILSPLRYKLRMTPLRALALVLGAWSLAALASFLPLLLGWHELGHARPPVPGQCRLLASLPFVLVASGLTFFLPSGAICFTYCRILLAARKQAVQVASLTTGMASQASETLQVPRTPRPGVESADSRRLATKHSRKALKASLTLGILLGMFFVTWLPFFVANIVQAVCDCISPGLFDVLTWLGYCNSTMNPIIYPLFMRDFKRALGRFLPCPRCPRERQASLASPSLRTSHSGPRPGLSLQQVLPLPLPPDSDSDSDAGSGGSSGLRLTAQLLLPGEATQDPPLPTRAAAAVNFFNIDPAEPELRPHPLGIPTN

[12] = target: Muscarinic acetylcholine receptor M1 (Homo sapiens, UniProt P11229); test: Displacement of [3H]pirezepine from muscarinic M1 receptor
[13] = test system: Rattus norvegicus; test: Analgesic activity in ip dosed rat vincristine-induced mechanical allodynic neuropathic pain; type: functional
[14] = target: P2Y purinoceptor 2 (Homo sapiens, UniProt P41231); test: Displacement of [35S]dATP-alpha-S from P2Y receptor
[15] = target: Potassium voltage-gated channel subfamily KQT member 3 (Homo sapiens, UniProt O43525); test: Inhibition of KCNQ3 channel
[16] = test system: Rattus norvegicus; test: Analgesic activity in ip dosed rat complete Freund's adjuvant-induced thermal hyperalgesia model assessed as paw withdrawal latency after 4 days; type: functional; conditions: 96 h
[17] = target: T2, P2X purinoceptor 2 (Homo sapiens, UniProt Q9UBL9); test: Inhibition of P2X2 receptor
T2 sequence (Q9UBL9 whole entry): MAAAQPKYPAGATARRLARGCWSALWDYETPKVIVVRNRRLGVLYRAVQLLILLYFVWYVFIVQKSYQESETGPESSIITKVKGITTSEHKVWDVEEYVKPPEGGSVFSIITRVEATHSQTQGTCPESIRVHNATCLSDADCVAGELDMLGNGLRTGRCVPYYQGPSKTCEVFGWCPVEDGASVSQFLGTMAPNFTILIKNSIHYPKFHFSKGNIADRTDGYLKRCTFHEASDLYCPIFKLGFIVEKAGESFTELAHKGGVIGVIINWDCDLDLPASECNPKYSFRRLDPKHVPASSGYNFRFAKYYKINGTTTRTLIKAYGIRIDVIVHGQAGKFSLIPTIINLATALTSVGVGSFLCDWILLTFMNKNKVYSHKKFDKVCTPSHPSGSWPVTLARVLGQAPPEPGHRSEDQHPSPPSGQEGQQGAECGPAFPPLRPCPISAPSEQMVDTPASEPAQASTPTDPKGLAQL

[18] = target: T3, Sodium channel protein type 3 subunit alpha (Homo sapiens, UniProt Q9NY46); test: Inhibition of human Nav1.3 channel expressed in HEK293 cells at -120 mV by patch clamp method; type: cell-based
T3 sequence (Q9NY46 whole entry): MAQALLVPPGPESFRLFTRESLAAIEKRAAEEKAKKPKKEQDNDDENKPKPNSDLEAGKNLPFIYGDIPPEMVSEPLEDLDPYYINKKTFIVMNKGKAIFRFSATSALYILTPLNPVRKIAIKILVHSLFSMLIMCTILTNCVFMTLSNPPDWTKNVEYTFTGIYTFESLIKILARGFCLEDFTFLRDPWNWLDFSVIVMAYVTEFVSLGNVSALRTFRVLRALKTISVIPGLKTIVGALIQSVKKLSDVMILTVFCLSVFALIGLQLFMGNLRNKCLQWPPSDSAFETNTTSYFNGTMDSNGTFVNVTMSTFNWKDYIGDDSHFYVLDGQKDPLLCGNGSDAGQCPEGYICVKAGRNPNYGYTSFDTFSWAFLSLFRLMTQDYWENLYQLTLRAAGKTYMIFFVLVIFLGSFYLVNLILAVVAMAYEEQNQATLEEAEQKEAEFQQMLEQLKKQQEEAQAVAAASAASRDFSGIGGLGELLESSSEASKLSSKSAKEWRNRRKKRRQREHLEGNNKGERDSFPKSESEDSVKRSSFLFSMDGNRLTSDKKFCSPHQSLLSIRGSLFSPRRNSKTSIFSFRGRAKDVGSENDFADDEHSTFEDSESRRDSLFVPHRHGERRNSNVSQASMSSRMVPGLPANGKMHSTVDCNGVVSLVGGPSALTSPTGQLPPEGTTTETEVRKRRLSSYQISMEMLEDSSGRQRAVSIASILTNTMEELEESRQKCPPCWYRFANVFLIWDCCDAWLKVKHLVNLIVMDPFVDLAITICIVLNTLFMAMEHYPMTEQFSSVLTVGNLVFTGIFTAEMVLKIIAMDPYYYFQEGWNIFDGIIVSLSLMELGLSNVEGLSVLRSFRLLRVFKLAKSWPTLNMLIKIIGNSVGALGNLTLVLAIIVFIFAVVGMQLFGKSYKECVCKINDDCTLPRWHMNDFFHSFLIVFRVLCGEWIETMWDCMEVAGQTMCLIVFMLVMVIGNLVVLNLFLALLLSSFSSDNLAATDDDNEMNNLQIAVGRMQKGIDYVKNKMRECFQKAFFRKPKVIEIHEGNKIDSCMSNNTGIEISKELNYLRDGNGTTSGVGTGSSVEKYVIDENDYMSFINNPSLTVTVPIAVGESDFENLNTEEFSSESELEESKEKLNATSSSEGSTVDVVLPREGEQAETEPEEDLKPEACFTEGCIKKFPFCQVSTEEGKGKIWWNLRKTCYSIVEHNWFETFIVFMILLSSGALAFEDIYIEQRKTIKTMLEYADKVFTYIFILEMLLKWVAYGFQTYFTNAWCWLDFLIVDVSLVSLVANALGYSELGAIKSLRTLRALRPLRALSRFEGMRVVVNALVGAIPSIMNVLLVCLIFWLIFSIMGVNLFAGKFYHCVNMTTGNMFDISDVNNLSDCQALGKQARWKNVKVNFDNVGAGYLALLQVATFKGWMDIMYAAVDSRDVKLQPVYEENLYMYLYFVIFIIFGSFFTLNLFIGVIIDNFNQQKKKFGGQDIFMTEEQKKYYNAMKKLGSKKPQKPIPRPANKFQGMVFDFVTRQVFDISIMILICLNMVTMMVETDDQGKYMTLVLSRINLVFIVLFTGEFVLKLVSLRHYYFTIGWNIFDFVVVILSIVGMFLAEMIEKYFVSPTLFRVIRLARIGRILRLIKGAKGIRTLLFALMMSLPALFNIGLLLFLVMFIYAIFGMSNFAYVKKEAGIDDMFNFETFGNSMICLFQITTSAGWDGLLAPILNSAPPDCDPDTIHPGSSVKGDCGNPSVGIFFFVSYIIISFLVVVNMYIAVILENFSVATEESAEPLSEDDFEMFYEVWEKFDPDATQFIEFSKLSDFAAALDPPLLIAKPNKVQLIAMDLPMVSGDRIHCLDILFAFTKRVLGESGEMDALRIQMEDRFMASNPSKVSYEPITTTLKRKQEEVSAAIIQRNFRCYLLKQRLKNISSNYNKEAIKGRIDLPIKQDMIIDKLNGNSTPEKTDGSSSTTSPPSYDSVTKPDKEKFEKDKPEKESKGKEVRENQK

[19] = Drug level in rat plasma at 10 to 100 mg/kg, ip after 45 mins; type: ADME, organism-based; parameters: dose 10-100 mg/kg, route intraperitoneal
[20] = Bioavailability in rat at 10 mg/kg, ip; type: ADME, organism-based; conditions: in vivo
[21] = test system: DRG neuron; test: Suppression of spontaneous firing of rat DRG neurons at 0.3 uM; type: functional, cell-based
[22] = test system: DRG neuron; test: Suppression of evoked action potential firing in rat DRG neurons at 0.3 uM; type: functional, cell-based
[23] = target: T2, P2X purinoceptor 2; test: Displacement of [3H]alpha,beta-methyl ATP from P2X receptor
[24] = test system: Rattus norvegicus; test: Analgesic activity in ip dosed rat colonic distension model; type: functional
[25] = test system: Rattus norvegicus; test: Analgesic activity in rat skin incision model of post-operative pain at 100 mg/kg, ip after 24 hrs; type: functional; conditions: route intraperitoneal
[26] = target: D(2) dopamine receptor (Homo sapiens, UniProt P14416); test: Displacement of [3H]spiperone from dopamine D2 receptor
[27] = target: Sodium channel protein type 9 subunit alpha (Homo sapiens, UniProt Q15858); test: Inhibition of human Nav1.7 channel expressed in HEK293 cells at -120 mV by patch clamp method; type: cell-based
[28] = target: 5-hydroxytryptamine receptor 7 (Homo sapiens, UniProt P34969); test: Displacement of [3H]LSD from 5HT7 receptor
[29] = test system: Rattus norvegicus; test: Analgesic activity in rat L5/L6 spinal nerve ligation-induced neuropathic pain model at 100 mg/kg, ip; type: functional; conditions: route intraperitoneal
[30] = target: D(1B) dopamine receptor (Homo sapiens, UniProt P21918); test: Displacement of [3H]SCH23390 from dopamine D5 receptor
[31] = test system: Rattus norvegicus; test: Analgesic activity in ip dosed rat formalin flinching inflammatory pain model; type: functional
[32] = target: Transient receptor potential cation channel subfamily V member 1 (Homo sapiens, UniProt Q8NER1); test: Inhibition of TRPV1
[33] = target: Cannabinoid receptor 2 (Homo sapiens, UniProt P34972); test: Displacement of [3H]Win 55212-2 from cannabinoid CB2 receptor
[34] = target: Sodium channel protein type 5 subunit alpha (Homo sapiens, UniProt Q14524); test: Inhibition of human Nav1.5 channel expressed in HEK293 cells at -90 mV by patch clamp method; type: cell-based
[35] = test system: Rattus norvegicus; test: Analgesic activity in ip dosed rat complete Freund's adjuvant-induced thermal hyperalgesia model assessed as paw withdrawal latency after 2 days; type: functional; conditions: 48 h
[36] = target: Histamine H2 receptor (Homo sapiens, UniProt P25021); test: Displacement of [125I]APT from histamine H2 receptor
[37] = test system: Rattus norvegicus; test: Motor effect in rat by rotarod test at 300 mg/kg, ip; type: functional; conditions: route intraperitoneal
[38] = Clearance in rat plasma; type: ADME, organism-based
[39] = Displacement of [3H]GABA from GABA receptor
[40] = target: Endothelin-1 receptor (Homo sapiens, UniProt P25101); test: Displacement of [125I]endothelin-1 from endothelin ETA receptor
[41] = test system: Rattus norvegicus; test: Motor effect in ip dosed rat assessed as latency to fall by edge balance test; type: functional
[42] = Displacement of [3H]PACAP1-27 from PACAP PAC1 receptor
[43] = target: P2X purinoceptor 3 (Homo sapiens, UniProt P56373); test: Inhibition of P2X3 receptor
[44] = target: Sodium channel protein type 10 subunit alpha (Rattus norvegicus, UniProt Q62968); test: Inhibition of Nav1.8 channel in rat dorsal root ganglion neurons assessed as blockade of TTX-R current by patch clamp method; type: tissue-based
[45] = test system: Mus musculus; test: Analgesic activity in ip dosed mouse visceral pain model assessed as acetic acid induced writhing; type: functional
[46] = target: 5-hydroxytryptamine receptor 5A (Homo sapiens, UniProt P47898); test: Displacement of [3H]LSD from 5HT5A receptor
[47] = target: Muscarinic acetylcholine receptor M5 (Homo sapiens, UniProt P08912); test: Displacement of [3H]4DAMP from muscarinic M5 receptor
[48] = test system: Rattus norvegicus; test: Analgesic activity in rat formalin flinching inflammatory pain model at 300 mg/kg, ip; type: functional; conditions: route intraperitoneal
[49] = test system: Rattus norvegicus; test: Analgesic activity in ip dosed rat skin incision model of post-operative pain after 2 hrs; type: functional
[50] = Volume of distribution in rat; type: ADME, organism-based; conditions: in vivo, read-out: Vbeta
[51] = test system: Rattus norvegicus; test: Analgesic activity in ip dosed rat complete Freund's adjuvant-induced mechanical hyperalgesia model assessed as paw withdrawal latency after 4 days; type: functional; conditions: 96 h
[52] = target: Potassium voltage-gated channel subfamily KQT member 2 (Homo sapiens, UniProt O43526); test: Inhibition of KCNQ2 channel
[53] = target: T3, Sodium channel protein type 3 subunit alpha; test: Inhibition of human Nav1.3 channel expressed in HEK293 cells at -60 mV by patch clamp method; type: cell-based

T1 sequence (Q99250 whole entry): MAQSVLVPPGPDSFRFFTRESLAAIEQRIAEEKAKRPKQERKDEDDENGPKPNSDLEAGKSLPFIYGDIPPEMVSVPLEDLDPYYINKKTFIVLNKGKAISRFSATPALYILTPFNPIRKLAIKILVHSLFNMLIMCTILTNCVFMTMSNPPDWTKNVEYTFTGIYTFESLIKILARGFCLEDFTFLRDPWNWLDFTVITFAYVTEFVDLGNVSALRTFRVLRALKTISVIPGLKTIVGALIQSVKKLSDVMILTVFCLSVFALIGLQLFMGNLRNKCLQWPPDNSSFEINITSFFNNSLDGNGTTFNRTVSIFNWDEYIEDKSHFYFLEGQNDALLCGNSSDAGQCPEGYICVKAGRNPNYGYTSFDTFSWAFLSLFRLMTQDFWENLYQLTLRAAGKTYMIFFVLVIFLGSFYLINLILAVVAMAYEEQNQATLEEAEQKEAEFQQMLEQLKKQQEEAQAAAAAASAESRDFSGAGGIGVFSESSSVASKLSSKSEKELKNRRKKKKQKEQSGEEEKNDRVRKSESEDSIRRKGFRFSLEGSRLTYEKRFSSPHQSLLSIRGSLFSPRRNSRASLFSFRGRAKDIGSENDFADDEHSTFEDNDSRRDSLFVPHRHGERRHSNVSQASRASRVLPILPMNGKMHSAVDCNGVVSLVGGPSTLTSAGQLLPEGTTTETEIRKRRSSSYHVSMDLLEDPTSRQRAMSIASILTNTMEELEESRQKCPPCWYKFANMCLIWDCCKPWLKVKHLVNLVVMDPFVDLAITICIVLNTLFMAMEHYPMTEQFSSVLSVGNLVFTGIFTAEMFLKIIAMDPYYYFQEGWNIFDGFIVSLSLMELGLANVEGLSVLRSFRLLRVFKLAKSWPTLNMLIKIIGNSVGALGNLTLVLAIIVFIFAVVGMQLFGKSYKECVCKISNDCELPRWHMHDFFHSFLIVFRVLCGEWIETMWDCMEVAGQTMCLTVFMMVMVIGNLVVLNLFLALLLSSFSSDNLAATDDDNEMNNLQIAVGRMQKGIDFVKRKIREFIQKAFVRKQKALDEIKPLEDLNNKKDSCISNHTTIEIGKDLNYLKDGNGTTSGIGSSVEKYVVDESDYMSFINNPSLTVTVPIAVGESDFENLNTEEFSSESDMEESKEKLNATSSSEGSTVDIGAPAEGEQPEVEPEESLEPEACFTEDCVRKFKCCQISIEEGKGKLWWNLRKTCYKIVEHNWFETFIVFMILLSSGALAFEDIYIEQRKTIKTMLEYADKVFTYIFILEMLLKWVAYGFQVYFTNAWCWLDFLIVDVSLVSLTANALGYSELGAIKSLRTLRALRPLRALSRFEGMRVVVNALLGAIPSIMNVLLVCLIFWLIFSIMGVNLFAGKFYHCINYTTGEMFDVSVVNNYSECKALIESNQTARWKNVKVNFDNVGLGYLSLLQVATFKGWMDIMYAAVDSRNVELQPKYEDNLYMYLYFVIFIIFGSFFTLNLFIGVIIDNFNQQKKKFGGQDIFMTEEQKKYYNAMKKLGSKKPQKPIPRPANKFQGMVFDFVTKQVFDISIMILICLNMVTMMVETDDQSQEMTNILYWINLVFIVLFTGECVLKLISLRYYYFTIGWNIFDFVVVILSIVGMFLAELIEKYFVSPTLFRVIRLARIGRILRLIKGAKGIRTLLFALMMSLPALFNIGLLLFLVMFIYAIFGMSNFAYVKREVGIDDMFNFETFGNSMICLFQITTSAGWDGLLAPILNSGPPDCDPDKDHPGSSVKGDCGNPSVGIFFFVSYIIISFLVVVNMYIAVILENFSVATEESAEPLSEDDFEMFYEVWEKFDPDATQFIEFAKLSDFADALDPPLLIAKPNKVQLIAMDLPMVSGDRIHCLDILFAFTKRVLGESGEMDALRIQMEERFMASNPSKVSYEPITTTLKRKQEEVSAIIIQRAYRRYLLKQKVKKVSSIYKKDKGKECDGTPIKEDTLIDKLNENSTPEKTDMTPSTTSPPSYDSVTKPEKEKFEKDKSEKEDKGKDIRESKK

IC50 [1]: > 10 µM
IC50 [2]: 7.38 µM
IC50 [4]: 9.49 µM
IC50 [10]: > 10 µM
IC50 [11]: > 10 µM
IC50 [12]: > 10 µM
IC50 [14]: > 10 µM
IC50 [15]: > 10 µM
IC50 [17]: > 10 µM
IC50 [18]: 11.8 µM
concentration at 0.75 h [19]: 400 ng/mL
bioavailability [20]: 26%
IC50 [23]: > 10 µM
IC50 [26]: > 10 µM
IC50 [27]: 35.3 µM
IC50 [28]: > 10 µM
IC50 [30]: > 10 µM
IC50 [32]: > 10 µM
IC50 [33]: > 10 µM
IC50 [36]: > 10 µM
clearance [38]: 25 mL/min/kg
IC50 [39]: > 10 µM
IC50 [40]: > 10 µM
IC50 [42]: > 10 µM
IC50 [43]: > 10 µM
IC50 [44]: 0.14 µM
IC50 [46]: > 10 µM
IC50 [47]: > 10 µM
Vd [50]: 11.5 L/kg
IC50 [52]: > 10 µM
IC50 [53]: 2.45 µM
SMILES: COc1cc(NC(=O)c2ccc(-c3ccc(Cl)cc3)o2)cc(OC)c1
ED50 [3]: > 100 mg/kg
ED50 [5]: 100 mg/kg
Activity [6]: 53%
Activity [7]: 0%
Activity [8]: 66%
Activity [9]: inactive
ED50 [13]: > 100 mg/kg
ED50 [16]: 100 mg/kg
Activity [21]: Active
Activity [22]: Active
ED50 [24]: > 100 mg/kg
Activity [25]: 32%
Activity [29]: 70%
ED50 [31]: > 100 mg/kg
IC50 [34]: 7.34 µM
ED50 [35]: 100 mg/kg
Activity [37]: 0%
ED50 [41]: > 300 mg/kg
ED50 [45]: > 100 mg/kg
Activity [48]: 9%
ED50 [49]: > 100 mg/kg
ED50 [51]: > 100 mg/kg
